Experimental data from patent US20230255954A1, “INTERLEUKIN 33 (IL-33) INHIBITION FOR TREATMENT OF CANCER, FIBROSIS AND INFLAMMATION” (The General Hospital Corporation, priority 2020, published 2023).

What was measured:
[1] = system: DNFB-treated WT and IL-33KO mice skin; assay: DNFB chronic skin inflammation with SB431542; format: in vivo, mouse; settings: 22 days
Experimental: Four- to six-week-old male and female mice were shaved on their abdomen and sensitized to 50 μL 0.5% 1-Fluoro-2,4-dinitrobenzene (DNFB, Millipore Sigma, St. Louis, Mo., catalog no. 42085) dissolved in acetone plus olive oil at a 3:1 ratio (refer to as acetone). Two days after first sensitization, mice were re-sensitized to 50 μL 0.25% DNFB on their abdomen. After 5 days, mice were challenged with 100 μL 0.25% DNFB on their back skin, which was repeated three times per week for 22 days. The skin rash was monitored over the duration of the study.
(§1) To inhibit the TGF-β/SMAD signaling pathway (Mordasky Markell et al, 2010), mice were treated with 10 μM SB431542 (Millipore Sigma, catalog no. 301836-41-9) in 200 μL acetone or 200 μL acetone alone to their back skin twice a week. SB431542/acetone treatments were given in between TPA or DNFB doses.
Tissue samples were collected and fixed in 4% paraformaldehyde (Millipore Sigma, catalog no. P6148) overnight at 4° C. Next, tissues were dehydrated in ethanol, processed and embedded in paraffin. 5 μm sections paraffin-embedded tissues were placed on slides, deparaffinized and stained with H&E. For immunohistochemistry, antigen retrieval was performed in 500 μL of antigen unmasking solution (VECTOR Laboratories, Burlingame, Calif., catalog no. H3300) diluted in 50 mL water using Cuisinart pressure cooker for 20 min at high pressure. Slides were washed three times for three minutes each in 1×TBS with 0.025% Triton X-100. Sections were blocked with 1% bovine serum albumin (Thermo Fisher Scientific, catalog no. BP1600) and 5% goat serum (Millipore Sigma, catalog no. G9023) for 1 hour. Slides were stained overnight at 4° C. with a primary antibody diluted in TBS containing 1% BSA (Table A). The following day, slides were washed as above and incubated in 100 μL biotinylated secondary antibody (VECTOR Laboratories, catalog no. PK-6200) for 30 min. After washing, slides were incubated with 100 μL mixture of reagent A and B from VECTASTAIN Elite ABC universal kit Peroxidase (VECTOR Laboratories, catalog no. PK-6200) for 30 min. After washing, slides were incubated with 100 μL ImmPACT DAB chromogen stating (VECTOR Laboratories, catalog no. SK-4105) for a few minutes. Finally, slides were dehydrated in ethanol and xylene and mounted with a coverslip using 3 drops of mounting media. For immunofluorescence staining, rehydrated tissue sections were permeated with 1×PBS supplemented with 0.2% Triton X-100 for 5 min. Antigen retrieval was performed similar to immunohistochemistry. Slides were washed three times for three minutes each in 1×PBS with 0.1% TWEEN20. […] The number of positive cells was counted in randomly selected high power field (HPF, 200× magnification) images in a blinded manner by a trained investigator. […]

Pam212 cells [2] = assay: Pam212 proliferation assay (CellTiter 96); format: cell-based, mouse; settings: 10 μM SB431542 for 3 hours; to the same degree as knocking down IL-33
Experimental: Pam212 cells were transfected with siIl33 (QIAGEN, catalog no. SI00870443) or siCon (QIAGEN, catalog no. 1022076) using Lipofectamine RNAiMax Transfection reagent (Thermo Fisher Scientific, catalog no. 13778075) according to the manufacturer's instructions. The following day, cells were divided into 96 well plates with a serial dilution of cells. The next day, the cells were treated with 5 nM of TGF-β (Cell Signaling Technology, catalog no. 5231LF) or 10 μM of SB431542 for 3 hours. After incubation, the proliferation assay was performed by CellTiter 96 Non-radioactive Cell proliferation assay (Promega, Madison, Wis., catalog no. G4001) according to the manufacturer's instructions. O.D was recorded as the measure of cell proliferation in each well. Absorbance (O.D) reading is directly proportional to the cell proliferation in each well.

[3] = system: DMBA/TPA skin tumors in WT and K14-IL33tg,ST2KO mice; assay: DMBA/TPA skin carcinogenesis protocol with SB431542; format: in vivo, mouse
Experimental: For DMBA/DNFB carcinogenesis protocol (Ameri et al., 2019), four- to six-week-old male and female mice were shaved on their abdomen and sensitized to 50 μL 0.5% DNFB. Two days later, mice were re-sensitized to 50 μL 0.25% DNFB on the abdomen. Five days later, mice were treated with […] 7,12-dimethylbenz(a)anthracene (DMBA, Millipore Sigma, catalog no. D3254) in 200 μL acetone on their back skin. After a week, mice were challenged with 100 μL 0.25% DNFB on their back skin, which was continued three times per week for 30 weeks at the dosage that maintained mild erythematous dermatitis in WT mice. Skin rash and tumor development were monitored and recorded weekly over the duration of the study. For DMBA/TPA carcinogenesis protocol, mice were treated with 6 μg 12-O-tetradecanoylphorbol-13-acetate (TPA, Millipore Sigma, catalog no. P1585) in 200 μL acetone instead of DNFB in DMBA/DNFB protocol without abdominal sensitization.
as §1
Tissue samples were collected and fixed in 4% paraformaldehyde (Millipore Sigma, catalog no. P6148) overnight at 4° C. Next, tissues were dehydrated in ethanol, processed and embedded in paraffin. 5 μm sections paraffin-embedded tissues were placed on slides, deparaffinized and stained with H&E. For immunohistochemistry, antigen retrieval was performed in 500 μL of antigen unmasking solution (VECTOR Laboratories, Burlingame, Calif., catalog no. H3300) diluted in 50 mL water using Cuisinart pressure cooker for 20 min at high pressure. Slides were washed three times for three minutes each in 1×TBS with 0.025% Triton X-100. Sections were blocked with 1% bovine serum albumin (Thermo Fisher Scientific, catalog no. BP1600) and 5% goat serum (Millipore Sigma, catalog no. G9023) for 1 hour. Slides were stained overnight at 4° C. with a primary antibody diluted in TBS containing 1% BSA (Table A). The following day, slides were washed as above and incubated in 100 μL biotinylated secondary antibody (VECTOR Laboratories, catalog no. PK-6200) for 30 min. After washing, slides were incubated with 100 μL mixture of reagent A and B from VECTASTAIN Elite ABC universal kit Peroxidase (VECTOR Laboratories, catalog no. PK-6200) for 30 min. After washing, slides were incubated with 100 μL ImmPACT DAB chromogen stating (VECTOR Laboratories, catalog no. SK-4105) for a few minutes. Finally, slides were dehydrated in ethanol and xylene and mounted with a coverslip using 3 drops of mounting media. For immunofluorescence staining, rehydrated tissue sections were permeated with 1×PBS supplemented with 0.2% Triton X-100 for 5 min. Antigen retrieval was performed similar to immunohistochemistry. Slides were washed three times for three minutes each in 1×PBS with 0.1% TWEEN20. Sections were blocked with 1% bovine serum albumin and 5% goat serum for 1 hour. The slides were stained overnight at 4° C. with primary antibodies (Table A). The following day, slides were washed as above and incubated for two hours at room temperature with secondary antibodies conjugated to fluorochromes (Table A). Next, slides were incubated with 1:2000 DAPI (Thermo Fisher Scientific, catalog no. D3571) for five minutes at room temperature, then washed as above. Slides were mounted with Prolong Gold Antifade Reagent (Thermo Fisher Scientific, catalog no. P36930). The number of positive cells was counted in randomly selected high power field (HPF, 200× magnification) images in a blinded manner by a trained investigator. Clinical samples were reviewed by a pathologist.

Pam212 cells [4] = assay: Ki67+ proliferating Pam212 cells; format: cell-based, mouse
[5] = DMBA/TPA-treated K14-IL33tg,ST2KO skin, vs acetone-treated controls
[6] = K14-IL33tg,ST2KO mice, DMBA/TPA, vs acetone-treated
[7] = WT mice, 30-week DMBA/TPA treatment

SMILES: NC(=O)c1ccc(-c2nc(-c3ccc4c(c3)OCO4)c(-c3ccccn3)[nH]2)cc1 [SB431542]
- epidermal hyperplasia ([1]; DNFB-treated IL-33KO mice): no impact
- keratinocyte proliferation ([1]; DNFB-treated IL-33KO mice): no impact
- keratinocyte proliferation ([1]; DNFB-treated WT mice): markedly decreased
- epidermal hyperplasia ([1]; DNFB-treated WT mice, 10 μM SB431542 in 200 μL acetone twice a week): markedly decreased
- Pam212 cell proliferation (Pam212 cells [2]): reduced
- apoptosis (cleaved caspase-3) ([3]; DMBA/TPA-treated K14-IL33tg,ST2KO skin): without impacting
- number of Ki67+ epidermal keratinocytes [3, 5]: reduced
- number of p-SMAD2/3+ epidermal keratinocytes [3, 5]: reduced
- number of skin tumors [3, 6]: significantly fewer
- tumor latency [3, 6]: markedly increased
- skin tumor size ([3]; K14-IL33tg,ST2KO mice, DMBA/TPA, vs controls): smaller
- endpoint tumor volumes [3, 7]: no significant impact
- skin tumor onset [3, 7]: no significant impact
- tumor numbers over time [3, 7]: no significant impact
- Ki67+ proliferating cells (Pam212 cells [4]): significantly reduced
